Results published in BindingDB's records for PubMed 34479036 (n/a, 2021).

Target: T1, Prostaglandin G/H synthase 2 (Homo sapiens, UniProt P35354)
T1 sequence (P35354 whole entry): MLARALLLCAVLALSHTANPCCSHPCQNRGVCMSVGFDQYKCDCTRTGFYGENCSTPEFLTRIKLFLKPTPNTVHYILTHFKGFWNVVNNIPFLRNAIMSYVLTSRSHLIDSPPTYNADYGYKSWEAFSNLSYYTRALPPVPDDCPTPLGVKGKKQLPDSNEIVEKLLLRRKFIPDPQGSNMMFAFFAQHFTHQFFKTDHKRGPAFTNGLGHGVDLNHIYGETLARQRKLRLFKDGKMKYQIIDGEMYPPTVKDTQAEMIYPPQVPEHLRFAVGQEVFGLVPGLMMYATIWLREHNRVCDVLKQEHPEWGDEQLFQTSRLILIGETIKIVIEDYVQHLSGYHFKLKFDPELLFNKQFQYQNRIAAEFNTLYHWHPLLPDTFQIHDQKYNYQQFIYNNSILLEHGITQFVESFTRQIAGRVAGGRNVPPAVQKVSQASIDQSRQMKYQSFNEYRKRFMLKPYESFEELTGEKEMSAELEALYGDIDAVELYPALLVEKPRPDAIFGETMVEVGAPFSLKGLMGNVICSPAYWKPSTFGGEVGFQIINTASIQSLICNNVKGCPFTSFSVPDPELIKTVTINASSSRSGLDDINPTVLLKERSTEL
Test: Inhibition of COX-2 (unknown origin) by enzyme immune assay

IC50: 88 nM
Compound: C=C1CC[C@@H]2[C@H](CC2(C)C)C(=C)CC[C@H]1O
